Measurements taken from paper PMC5445010 (Chembiochem : a European journal of chemical biology, 2017).
Like-named read-outs stand apart in the source and are kept apart here.

Experiments:
IspG = settings: cited from earlier work
IspH [1] = settings: cited from earlier work
IspH [2] = format: biochemical

C#CCOP(=O)(O)OP(=O)(O)O [Compound 5, propargyl diphosphate]
IspG inhibition (in words) (IspG): low μM inhibitors
IspH inhibition (in words) (IspH [1]): low μM inhibitors

Nc1ccc2c(c1)CC1(C(=O)NC(=O)NC1=O)C1CN(Cc3ccccc3)CCN21 (stereo not shown) [Compound 9, 8-amino-3-benzyl-2,3,4,4a-tetrahydro-1H,2′H,6H-spiro[pyrazino[1,2-a]quinoline-5,5′-pyrimidine]-2′,4′,6′ (1′H,3′H)-trione]
Ki (IspH [2]; read-out: Ki of barbiturate analogs, IspH (summary over enzymes)): 0.5 to 3 µM

C#CCO [propargyl alcohol]
Ki (IspH [2]; read-out: IspH inhibition Ki): > 10000 µM
